Key:
CD80/PD-L1 binding = target: T1, CD80/PD-L1 binding (Homo sapiens, UniProt Q9NZQ7); assay: HTRF inhibition of CD80/PD-L1 binding in vitro; conditions: His-CD80 100 nM, PD-L1-Fc 2 nM, read-out: IC50 inhibiting CD80/PD-L1 binding in vitro
T1 construct: purchased Sino Biological Inc. 10084-H02H-100 (PD-L1-Fc); 10698-H08H-100 (His-CD80)
From the text: In addition to PD-1, PD-L1 can also exert immunosuppressive activity by binding to CD80. Similarly, in vitro experiments of binding or binding inhibition of CD80 and PD-L1 can also be measured by homogeneous time-resolved fluorescence (HTRF). When the anti-hFc-Eu^3+ antibody and anti-His-XL665 antibody were bound to the hFC tag fused to PD-L1 and the His tag fused to CD80 respectively, and excited with a 320 nm wavelength laser, the binding of PD-L1 and CD80 enabled energy to be transferred from the Eu element to the XL665 fluorescein, which was excited to emit light. When the inhibitor of the interaction between PD-L1 and CD80 was added, the combination of the two was destroyed, so that the distance between Eu and XL665 was far away, the energy cannot be transferred, and XL665 would not be excited.
(§1) Recombinant human CD80 protein with His tag (His-CD80 protein, Cat #: 10698-H08H-100), and recombinant human PD-L1-Fc fusion protein (PD-L1-Fc fusion protein, Cat #: 10084-H02H-100) were purchased from Sino Biological Inc., anti-hFc-Eu^3+ antibody and anti-His-XL665 antibody were purchased from Cisbio Company, and other related reagents such as dilution buffer (Diluent buffer 5, Cat #: 62DL5DDC), detection buffer (PPI-Europium detection buffer, Cat #: 61DB9RDF) were purchased from Cisbio Company. Fluorescence detection instrument Tecan (Spark 10 M) was purchased from Switzerland Tecan Company.
(§2) (1) Experimental preparation: The test compound was diluted with dilution buffer into different concentration gradients (the highest final concentration in 20 μL final reaction system was 10 μM), His-CD80 protein was diluted to 800 nM (the final concentration in 20 μL final reaction system was 100 nM), and the PD-L1-Fc fusion protein was diluted to 16 nM (final concentration was 2 nM). The anti-His-XL665 antibody and anti-hFc-Eu^3+ antibody were respectively diluted 20 times and 100 times using the detection buffer according to the reagent requirements.
(§3) (2) 5 μL of test compound, 2.5 μL of Hid-CD80 protein and 2.5 μL of PD-1-Fc fusion protein solution were mixed, and incubated at room temperature for 15 min. Then the system was added with 5 μL of anti-His-XL665 antibody and 5 μL of anti-hFc-Eu^3+ antibody, incubated for another 3 h, and then detected.
(3) When detecting the reaction, a control group was provided, including a 0% inhibition positive control without adding test compounds and a 100% inhibition negative control without adding CD-80 protein. All detections were performed with duplicates.
(§4) (4) The fluorescence signal of each well was measured using a fluorescence detector Tecan (Spark 10M) at an excitation wavelength of 320 nm, and emission wavelengths of 620 nm and 665 nm, respectively. The intensity of the mutual binding of CD80 and PD-L1 referred to the ratio of fluorescence signals Em665/Em620.
(§5) (5) The binding inhibition rate of the test compound was calculated as follows: Inhibition rate (%)=[1−(Fluorescence signal ratio of detection well-fluorescence signal ratio of 100% inhibition negative control)]/(fluorescence signal ratio of 0% inhibition positive control-fluorescence signal ratio of 100% inhibition negative control)×100%. After calculating the inhibition rate on CD80/PD-L1 binding of the test compounds with different concentration gradients, the 50% inhibitory concentration (IC50) was calculated.

PD-1/PD-L1 binding = target: T2, PD-1/PD-L1 binding (Homo sapiens, UniProt Q9NZQ7); assay: HTRF inhibition of PD-1/PD-L1 binding in vitro; conditions: His-PD-1 100 nM, PD-L1-Fc 2 nM, read-out: IC50 inhibiting PD-1/PD-L1 binding in vitro
T2 construct: purchased Sino Biological Inc. 10084-H02H-100 (PD-L1-Fc); 10377-H08H-50 (His-PD-1)
From the text: Homogeneous Time-Resolved Fluorescence (HTRF): This method used the recombinant human PD-L1 protein fused to express the hFc tag and the recombinant human PD-1 protein fused to express the His tag, both of which were interacting ligands and receptors. When the anti-hFc antibody containing Eu element chelation marker and the anti-His antibody labeled with XL665 fluorescein were bound with the above two corresponding labels, and excited by a laser with a wavelength of 320 nm, the ligand-receptor binding enabled the energy to be transferred from the Eu element to the XL665 fluorescein, which was excited to emit light at a wavelength of 665 nm. However, when an inhibitor of the interaction between PD-L1 and PD-1 was added, the binding of the ligand to the receptor was destroyed, so that the distance between Eu and XL665 was far away, the energy cannot be transferred, and XL665 would not be excited.
as §1, with “PD-1” for “CD80”, “(His-PD-1” for “(His-CD80”, “10377-H08H-50),” for “10698-H08H-100),”, “[…]” for “anti-hFc-Eu^3+”
as §2, with “His-PD-1” for “His-CD80”
as §3, with “PD-L1-Fc fusion” for “Hid-CD80”, “His-PD-1” for “PD-1-Fc fusion”
(3) When detecting the reaction, a control group was also provided, including a 0% inhibition positive control without adding test compounds and a 100% inhibition negative control without adding PD-1 protein. All detections were performed with duplicates.
as §4, with “PD-1” for “CD80”
as §5, with “PD-1/PD-L1” for “CD80/PD-L1”

T2 sequence (Q9NZQ7 19-239 limits assumed): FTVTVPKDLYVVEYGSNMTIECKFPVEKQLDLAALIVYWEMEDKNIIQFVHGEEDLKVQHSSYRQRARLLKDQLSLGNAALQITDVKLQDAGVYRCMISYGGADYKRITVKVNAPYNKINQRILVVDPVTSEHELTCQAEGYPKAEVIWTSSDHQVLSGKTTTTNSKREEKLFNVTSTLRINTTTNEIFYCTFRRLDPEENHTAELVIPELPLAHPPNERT
T1 sequence (Q9NZQ7 19-239 limits assumed): as above

Compound	IC50 (CD80/PD-L1 binding)	IC50 (PD-1/PD-L1 binding)
[2H]C([2H])([2H])OCC12CCC(CCN3CCc4c(nc(C(=O)Nc5cccc(-c6cccc(NC(=O)c7nc8c(n7C([2H])([2H])[2H])CCN(CCC79CCC(C(=O)O)(CC7)C9)C8)c6Cl)c5C)n4C([2H])([2H])[2H])C3)(CC1)C2 [Compound I-9, 4-(2-(2-((2-chloro-3′-(5-(2-(4-((methoxy-d3)methyl)bicyclo[2.2.1]heptane-1-yl)ethyl)-1-(methyl-d3)-4,5,6,7-tetrahydro-1H-imidazo[4,5-c]pyridine-2-carboxamido)-2′-methyl-[1,1′-biphenyl]-3-yl)carbamoyl)-1-(methyl-d3)-1,4,6,7-tetrahydro-5H-imidazo[4,5-c]pyridin-5-yl)ethyl)bicyclo[2.2.1]heptane-1-carboxylic acid]	3.42 nM	3.77 nM
[2H]C([2H])([2H])n1c(C(=O)Nc2cccc(-c3cccc(NC(=O)c4nc5c(n4C([2H])([2H])[2H])CCN(CCC46CCC(C(=O)O)(CC4)C6)C5)c3Cl)c2C)nc2c1CCN(CCC13CCC(COC)(CC1)C3)C2 [Compound I-10, 4-(2-(2-((2-chloro-3′-(5-(2-(4-(methoxymethyl)bicyclo[2.2.1]heptane-1-yl)ethyl)-1-(methyl-d3)-4,5,6,7-tetrahydro-1H-imidazo[4,5-c]pyridine-2-carboxamido)-2′-methyl-[1,1′-biphenyl]-3-yl)carbamoyl)-1-(methyl-d3)-1,4,6,7-tetrahydro-5H-imidazo[4,5-c]pyridin-5-yl)ethyl)bicyclo[2.2.1]heptane-1-carboxylic acid]	4.26 nM	3.59 nM
[2H]C([2H])([2H])OCC12CCC(CCN3CCc4c(nc(C(=O)Nc5cccc(-c6cccc(NC(=O)c7nc8c(n7C([2H])([2H])[2H])CCN(CCC79CCC(C(=O)O)(CC7)C9)C8)c6C)c5Cl)n4C([2H])([2H])[2H])C3)(CC1)C2 [Compound I-11, 4-(2-(2-((2′-chloro-3′-(5-(2-(4-((methoxy-d3)methyl)bicyclo[2.2.1]heptane-1-yl)ethyl)-1-(methyl-d3)-4,5,6,7-tetrahydro-1H-imidazo[4,5-c]pyridine-2-carboxamido)-2-methyl-[1,1′-biphenyl]-3-yl)carbamoyl)-1-(methyl-d3)-1,4,6,7-tetrahydro-5H-imidazo[4,5-c]pyridin-5-yl)ethyl)bicyclo[2.2.1]heptane-1-carboxylic acid]	3.21 nM	4.21 nM

Now those with a lower IC50 (CD80/PD-L1 binding), led by results:

IC50 (CD80/PD-L1 binding)	IC50 (PD-1/PD-L1 binding)	Compound
2.94 nM	3.8 nM	[2H]C([2H])([2H])n1c(C(=O)Nc2cccc(-c3cccc(NC(=O)c4nc5c(n4C([2H])([2H])[2H])CCN(CCC46CCC(COC)(CC4)C6)C5)c3Cl)c2C)nc2c1CCN(CCC13CCC(C(=O)O)(CC1)C3)C2 [Compound I-12, 4-(2-(2-((2′-chloro-3′-(5-(2-(4-(methoxymethyl)bicyclo[2.2.1]heptane-1-yl)ethyl)-1-(methyl-d3)-4,5,6,7-tetrahydro-1H-imidazo[4,5-c]pyridine-2-carboxamido)-2-methyl-[1,1′-biphenyl]-3-yl)carbamoyl)-1-(methyl-d3)-1,4,6,7-tetrahydro-5H-imidazo[4,5-c]pyridin-5-yl)ethyl)bicyclo [2.2.1]heptane-1-carboxylic acid]
1.12 nM	1.02 nM	[2H]C([2H])([2H])OCC12CCC(CCN3CCc4c(nc(C(=O)Nc5cccc(-c6cccc(NC(=O)c7nc8c(n7C([2H])([2H])[2H])CCN(CCC79CCC(C(=O)O)(CC7)C9)C8)c6Cl)c5Cl)n4C([2H])([2H])[2H])C3)(CC1)C2 [Compound I-5, 4-(2-(2-((2,2′-dichloro-3′-(5-(2-(4-((methoxy-d3)methyl)bicyclo[2.2.1]heptane-1-yl)ethyl)-1-(methyl-d3)-4,5,6,7-tetrahydro-1H-imidazo[4,5-c]pyridine-2-carboxamido)-[1,1′-biphenyl]-3-yl)carbamoyl)-1-(methyl-d3)-1,4,6,7-tetrahydro-5H-imidazo[4,5-c]pyridin-5-yl)ethyl)bicyclo[2.2.1]heptane-1-carboxylic acid]
0.95 nM	1 nM	[2H]C([2H])([2H])n1c(C(=O)Nc2cccc(-c3cccc(NC(=O)c4nc5c(n4C([2H])([2H])[2H])CCN(CCC46CCC(C(=O)O)(CC4)C6)C5)c3Cl)c2Cl)nc2c1CCN(CCC13CCC(COC)(CC1)C3)C2 [Compound I-6, 4-(2-(2-((2,2′-dichloro-3′-(5-(2-(4-((methoxy)methyl)bicyclo[2.2.1]heptane-1-yl)ethyl)-1-(methyl-d3)-4,5,6,7-tetrahydro-1H-imidazo[4,5-c]pyridine-2-carboxamido)-[1,1′-biphenyl]-3-yl)carbamoyl)-1-(methyl-d3)-1,4,6,7-tetrahydro-5H-imidazo[4,5-c]pyridin-5-yl)ethyl)bicyclo[2.2.1]heptane-1-carboxylic acid]

Source: US20260234164A1, “BIPHENYL COMPOUND AS IMMUNOMODULATOR, PREPARATION METHOD THEREFOR AND USE THEREOF” (SHENZHEN CHIPSCREEN BIOSCIENCES CO., LTD., priority 2021, published 2026)
